Measured values reported in ChEMBL document CHEMBL5724914, “Linking interpersonal differences in gut microbiota composition and drug biotransformation activity” (2024).

What was measured:
[1] = human gut metagenome, 24 h, 2 µM
[2] = The drug is tested on Z-009 corresponding to pig gut metagenome with ENA study accession number: PRJEB37062 and ENA sample accession number: ERS12561809 for biotransformation under anaerobic condition. The drug concentrations were measured over 9 timepoints collected between 0 and 24 hours of incubation by liquid-chromatography-coupled mass spectrometry (LC–MS); conditions: 2 µM
[3] = The drug is tested on WLS-170 corresponding to human gut metagenome with ENA study accession number: PRJEB37062 and ENA sample accession number: ERS12561762 for biotransformation under anaerobic condition. The drug concentrations were measured over 9 timepoints collected between 0 and 24 hours of incubation by liquid-chromatography-coupled mass spectrometry (LC–MS); conditions: 2 µM
[4] = The drug is tested on WLS-082 corresponding to human gut metagenome with ENA study accession number: PRJEB37062 and ENA sample accession number: ERS12561751 for biotransformation under anaerobic condition. The drug concentrations were measured over 9 timepoints collected between 0 and 24 hours of incubation by liquid-chromatography-coupled mass spectrometry (LC–MS); conditions: 2 µM
[5] = human gut metagenome, 24 h, 2 µM; remark: listed apart in the source
[6] = human gut metagenome, 24 h, 2 µM; remark: listed apart in the source
[7] = The drug is tested on Z-023 corresponding to metagenome with ENA study accession number: PRJEB37062 and ENA sample accession number: ERS12561822 for biotransformation under anaerobic condition. The drug concentrations were measured over 9 timepoints collected between 0 and 24 hours of incubation by liquid-chromatography-coupled mass spectrometry (LC–MS); conditions: 2 µM
[8] = The drug is tested on Z-021 corresponding to metagenome with ENA study accession number: PRJEB37062 and ENA sample accession number: ERS12561820 for biotransformation under anaerobic condition. The drug concentrations were measured over 9 timepoints collected between 0 and 24 hours of incubation by liquid-chromatography-coupled mass spectrometry (LC–MS); conditions: 2 µM
[9] = The drug is tested on WLS-370 corresponding to human gut metagenome with ENA study accession number: PRJEB37062 and ENA sample accession number: ERS12561793 for biotransformation under anaerobic condition. The drug concentrations were measured over 9 timepoints collected between 0 and 24 hours of incubation by liquid-chromatography-coupled mass spectrometry (LC–MS); conditions: 2 µM
[10] = human gut metagenome, 24 h, 2 µM; remark: listed apart in the source
[11] = human gut metagenome, 24 h, 2 µM; remark: listed apart in the source
[12] = human gut metagenome, 24 h, 2 µM; remark: listed apart in the source
[13] = The drug is tested on Z-016 corresponding to mouse gut metagenome with ENA study accession number: PRJEB37062 and ENA sample accession number: ERS12561815 for biotransformation under anaerobic condition. The drug concentrations were measured over 9 timepoints collected between 0 and 24 hours of incubation by liquid-chromatography-coupled mass spectrometry (LC–MS); conditions: 2 µM
[14] = The drug is tested on WLS-220 corresponding to human gut metagenome with ENA study accession number: PRJEB37062 and ENA sample accession number: ERS12561769 for biotransformation under anaerobic condition. The drug concentrations were measured over 9 timepoints collected between 0 and 24 hours of incubation by liquid-chromatography-coupled mass spectrometry (LC–MS); conditions: 2 µM
[15] = human gut metagenome, 24 h, 2 µM; remark: listed apart in the source
[16] = The drug is tested on Z-008 corresponding to metagenome with ENA study accession number: PRJEB37062 and ENA sample accession number: ERS12561808 for biotransformation under anaerobic condition. The drug concentrations were measured over 9 timepoints collected between 0 and 24 hours of incubation by liquid-chromatography-coupled mass spectrometry (LC–MS); conditions: 2 µM
[17] = human gut metagenome, 24 h, 2 µM; remark: listed apart in the source
[18] = The drug is tested on WLS-077 corresponding to human gut metagenome with ENA study accession number: PRJEB37062 and ENA sample accession number: ERS12561750 for biotransformation under anaerobic condition. The drug concentrations were measured over 9 timepoints collected between 0 and 24 hours of incubation by liquid-chromatography-coupled mass spectrometry (LC–MS); conditions: 2 µM
[19] = The drug is tested on WLS-086 corresponding to human gut metagenome with ENA study accession number: PRJEB37062 and ENA sample accession number: ERS12561752 for biotransformation under anaerobic condition. The drug concentrations were measured over 9 timepoints collected between 0 and 24 hours of incubation by liquid-chromatography-coupled mass spectrometry (LC–MS); conditions: 2 µM
[20] = The drug is tested on WLS-006 corresponding to human gut metagenome with ENA study accession number: PRJEB37062 and ENA sample accession number: ERS12561741 for biotransformation under anaerobic condition. The drug concentrations were measured over 9 timepoints collected between 0 and 24 hours of incubation by liquid-chromatography-coupled mass spectrometry (LC–MS); conditions: 2 µM
Note: call rule not given here.

SMILES	Bacterial Biotransformation [1]	Bacterial Biotransformation [2]	Bacterial Biotransformation [3]	Bacterial Biotransformation [4]	Bacterial Biotransformation [5]	Bacterial Biotransformation [6]	Bacterial Biotransformation [7]	Bacterial Biotransformation [8]	Bacterial Biotransformation [9]	Bacterial Biotransformation [10]	Bacterial Biotransformation [11]	Bacterial Biotransformation [12]	Bacterial Biotransformation [13]	Bacterial Biotransformation [14]	Bacterial Biotransformation [15]	Bacterial Biotransformation [16]	Bacterial Biotransformation [17]	Bacterial Biotransformation [18]	Bacterial Biotransformation [19]	Bacterial Biotransformation [20]
Cc1cc2c(cc1S(N)(=O)=O)S(=O)(=O)CCC2	Compound NOT metabolized	Compound NOT metabolized	Compound NOT metabolized	Compound NOT metabolized	Compound NOT metabolized	Compound NOT metabolized	Compound NOT metabolized	Compound NOT metabolized	Compound NOT metabolized	Compound NOT metabolized	Compound NOT metabolized	Compound NOT metabolized	Compound NOT metabolized	Compound NOT metabolized	Compound NOT metabolized	Compound NOT metabolized	Compound NOT metabolized	Compound NOT metabolized	Compound NOT metabolized	Compound NOT metabolized
CN1CCc2c(c3ccccc3n2Cc2ccccc2)C1.CN1CCc2c(c3ccccc3n2Cc2ccccc2)C1.O=S(=O)(O)c1cccc2c(S(=O)(=O)O)cccc12	Compound metabolized	Compound NOT metabolized	Compound metabolized	Compound NOT metabolized	Compound NOT metabolized	Compound NOT metabolized	Compound NOT metabolized	Compound NOT metabolized	Compound metabolized	Compound NOT metabolized	Compound metabolized	Compound metabolized	Compound NOT metabolized	Compound metabolized	Compound NOT metabolized	Compound NOT metabolized	Compound NOT metabolized	Compound NOT metabolized	Compound NOT metabolized	Compound NOT metabolized
COc1cc2nc(N(C)CCCNC(=O)C3CCCO3)nc(N)c2cc1OC (stereo not given) [ALFUZOSIN]	Compound metabolized	Compound metabolized	Compound metabolized	Compound metabolized	Compound metabolized	Compound metabolized	Compound NOT metabolized	Compound NOT metabolized	Compound metabolized	Compound NOT metabolized	Compound metabolized	Compound metabolized	Compound NOT metabolized	Compound metabolized	Compound metabolized	Compound NOT metabolized	Compound metabolized	Compound NOT metabolized	Compound metabolized	Compound metabolized
